Laboratory results as given in patent US9440992B2, “5,7-disubstituted thiazolo[4,5-D]pyrimidines as chemokine inhibitors” (Acturum Life Science AB, priority 2005, dated 2016).
pKi: −log10 of the molar value.

Assays:
CX3CR1 = target: T1, CX3CR1 (Homo sapiens, UniProt P49238); experiment: [125I]-fractalkine competition receptor binding assay on hCX3CR1 membranes; details: 25° C. for 24 h
T1 construct: expressed in transfected cells; host or cells: human embryonic kidney suspension (HEKS) 293 cell line stably expressing chimeric G-protein Gαqi5; membranes
T1 sequence (P49238 1-355): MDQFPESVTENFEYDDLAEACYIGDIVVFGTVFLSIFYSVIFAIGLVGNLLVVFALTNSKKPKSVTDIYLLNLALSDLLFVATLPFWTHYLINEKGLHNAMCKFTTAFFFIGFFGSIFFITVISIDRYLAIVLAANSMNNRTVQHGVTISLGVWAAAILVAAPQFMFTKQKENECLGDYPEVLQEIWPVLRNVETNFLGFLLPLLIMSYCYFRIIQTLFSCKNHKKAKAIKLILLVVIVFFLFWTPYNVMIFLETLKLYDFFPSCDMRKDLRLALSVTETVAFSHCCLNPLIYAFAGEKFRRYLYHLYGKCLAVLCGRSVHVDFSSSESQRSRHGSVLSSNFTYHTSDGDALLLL

CXCR2 = target: T2, CXCR2 (Homo sapiens, UniProt P25025); experiment: [125I]-hIL-8 competition binding (SPA) on membranes of cells expressing human CXCR2; details: receptor binding, [125I]-hIL-8, RT for 4 h
T2 construct: cultured under geneticin/G418 selection; membranes
T2 sequence (P25025 1-360): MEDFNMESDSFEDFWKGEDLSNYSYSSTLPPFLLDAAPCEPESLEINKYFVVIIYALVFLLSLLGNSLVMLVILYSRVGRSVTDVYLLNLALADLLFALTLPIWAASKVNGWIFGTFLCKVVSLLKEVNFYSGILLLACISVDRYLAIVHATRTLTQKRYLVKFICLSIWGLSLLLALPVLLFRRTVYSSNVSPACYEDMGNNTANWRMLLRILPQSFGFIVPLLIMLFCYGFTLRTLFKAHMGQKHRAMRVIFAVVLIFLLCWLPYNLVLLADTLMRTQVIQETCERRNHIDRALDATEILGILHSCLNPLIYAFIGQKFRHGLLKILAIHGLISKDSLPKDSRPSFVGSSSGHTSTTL
Experimental: Recombinant human fractalkine (hCX3CL1) and recombinant human interleukin-8 (IL-8 or hCXCL8) were purchased from PeproTech Inc., UK. Recombinant [^125I]-fractalkine (human) and [^125I] hIL-8 with the specific activity of 2200 Ci/mmol, was purchased from NEN® Life Science Products, Inc., UK. Fluo4-AM was purchased from Molecular Probes, US. All other chemicals were of analytical grade.
Cells expressing human CXCR2 obtained from AstraZeneca Charnwood are cultured in EMEM containing Glutamax and supplemented with 10% FBS (from PAA, Austria), 1% non-essential amino acids (NEAA), 100 U/mL penicillin and 100 μg/mL streptomycin (PEST) and 500 μg/mL geneticin/G418.
Cells are grown at 37° C. and 5% CO2 and harvested at 60-80% confluence in buffer containing 10 mM Tris-HCl pH 7.4, 5 mM EDTA, 0.1 mg/mL bacitracin. The cells are centrifuged at 300×g for 10 min and the pellet is resuspended in harvesting buffer (10 mM Tris-HCl, pH 7.4, 5 mM ethylenediaminetetra-aceticacid (EDTA) and 0.1 mg/mL bacitracin), pooled and homogenised using a Dounce homogeniser. The homogenate is centrifuged in 48000×g for 10 min and resuspended in harvesting buffer using Ultra-Turrax T8. Membrane aliquots are stored at −80° C. Protein concentration was determined in microtiter plates as described by Harrington (1990, Anal. Biochem. 186, 285-287).
The [^125I]-hIL-8 competition binding studies are performed in singlicates in white clear bottom 96-well isoplates with a final volume of 200 μL and each well contains 150 pM [^125I]-hIL-8 (specific activity 2200 Ci/mmol), membrane-SPA preparation equivalent to 20 pM receptors and 1.5 mg SPA-beads in assay buffer [50 mM HEPES-KOH pH 7.4, 10 mM MgCl2, 1 mM EDTA, 0.5% (w/v) gelatin]. The test compounds were treated as above. The non-specific binding is determined in the presence of 500 nM unlabelled hIL-8. The agonist hIL-8 (a concentration-response curve from 3 pM to 30 nM), is used as reference compound at each test occasion. […] The binding reaction is started by addition of 140 μL membrane-SPA preparation, and the samples are incubated in dark at RT for 4 h. Assay plates are counted in a liquid scintillation counter (Wallac MicroBeta® TriLux 1450 from PerkinElmer, USA).

Row | SMILES | pKi (CX3CR1) | pKi (CXCR2)
1 | CCC(Sc1nc(N[C@@H](CO)CC(C)C)c2sc(N)nc2n1)c1ccccc1 (stereo partly drawn) | 8.51 | 5.56
2 | CC(C)C[C@H](CO)Nc1nc(SC(C)c2ccccc2)nc2nc(N)sc12 (stereo partly drawn) | 8.42 | 5.46
3 | CCC[C@H](CO)Nc1nc(S[C@@H](C)c2ccccc2)nc2nc(N)sc12 | 7.28 | 5.94
4 | CCC[C@H](CO)Nc1nc(SCc2ccccc2)nc2nc(N)sc12 [reference compound] | 6.23 | 6.27

Results, then the molecule that gave them:

Row | pKi (CX3CR1) | pKi (CXCR2) | SMILES
5 | 8.23 | 5.25 | CC(C)C[C@H](CO)Nc1nc(SC(C)c2ccccc2Cl)nc2nc(N)sc12 (stereo partly drawn)
6 | 7.85 | 5.38 | CC(C)C[C@H](CO)Nc1nc(S[C@@H](C)c2cccc(C#N)c2)nc2nc(N)sc12
7 | 7.32 | 6.27 | CC(C)C[C@H](CO)Nc1nc(SCc2ccccc2)nc2nc(N)sc12 [reference compound]
8 | 7.29 | 5.74 | CC(C)C[C@H](CO)Nc1nc(SCc2ccccc2Cl)nc2nc(N)sc12 [reference compound]
9 | 6.81 | 5.70 | CC(C)C[C@H](CO)Nc1nc(SCc2cccc(C#N)c2)nc2nc(N)sc12 [reference compound]
